Experimental data: publication PMC8110993, “Structure and antimicrobial activity of NCR169, a nodule-specific cysteine-rich peptide of Medicago truncatula” (Scientific Reports, 2021)
Read-outs that look alike come from different tables or passages of the source. Where a SMILES comes first, the peptide text is derived from it. Bridges are numbered along the chain shown (N, C = ends).

What was measured:
Escherichia coli K-12 = type: cell-based
Method: (§1) Antimicrobial tests were performed using the drop plate method[12],[47]. Bacterial strains in the logarithmic phase (OD600 = 0.5–0.8) were diluted with 5 mM HEPES–KOH (pH 7.0) to a bacterial culture value of 1 × 10^6 CFU/mL. At OD600 = 0.1, the concentrations of S. meliloti and E. coli K-12 cells were 6.4 × 10^6 CFU/mL and 5.2 × 10^7 CFU/mL, respectively. Equal volumes of bacteria (S. meliloti or E. coli K-12) and NCR169 peptide or PMB were mixed and incubated at room temperature for 2 h. For antimicrobial tests against S. meliloti, 10 μL of each serially diluted mixture was spotted on MHB plates with 2.5 mM MgCl2, and 2.5 mM CaCl2, followed by incubation at 30 °C for 40 h. For antimicrobial tests against E. coli K-12, 10 μL of each mixture was spotted on Mueller Hinton Broth (MHB; MilliporeSigma, Burlington, MA, USA) plates followed by incubation at 30 °C for 13 h.
(§2) To estimate survival rate, the peptide-treated bacterial mixtures were serially diluted with the buffer before spotting on the plate. Bacterial survival rates were calculated using the colony numbers of each bacterial strain with or without peptide treatment. All experiments were repeated at least four times.
(§3) Supplementary Table S2. Antimicrobial activities of NCR169 peptides against E. coliK-12 and S. meliloti.
(§4) Peptide IC50 (μM)* IC100 (μM)
(§5) E. coli K-12 S. meliloti E. coli K-12 S. meliloti
(§6) IC50: 50% inhibitory concentration (Calculated using “Dose-response curve” fitting)

Sinorhizobium meliloti = type: cell-based
Method: as §1, §2, §3, §4, §5, §6

[1] = type: physicochemical; settings: pH 2.2
Method: We further measured the circular dichroism (CD) spectra of NCR169-ox1 and -ox2 under various pH conditions to confirm their structural stability against pH (Supplementary Fig. S4). […] Because acidic pH is preferable for amide proton detection in NMR experiments, we performed the following solution NMR study at lower pH.
CD spectra were recorded within a wavelength range of 270–195 nm using a JASCO J-820 spectropolarimeter (JASCO International Co., Ltd., Tokyo, Japan). A quartz cell with a light path length of 1 mm was used for the measurements. The sample temperature was maintained at 25 °C during the measurements.
Supplementary Figure S4. Circular dichroism (CD) spectra of NCR169-ox1 and -ox2 under
various pH conditions. The signal reflectingβ-sheet structure (218 nm) was hardly changed.

[2] = type: physicochemical
Method: (§7) To confirm it, we examined the solubility of NCR169 in various solvents, HEPES (salt-free), HEPES with salt (50 to 200 mM NaCl or KCl), and PBS. […] In other words, the disulfide bonds of NCR169 contribute to its solubility.
Supplementary Figure S3. Solubility assessment of NCR169. The same amount of NCR169 was dissolved in various solvents. After incubation at room temperature for 1 h, the solution was centrifuged at 20,000 × g and the supernatant was analyzed by Tricine-SDS-PAGE. […]

[3] = Liposome sedimentation (binding) assay; settings: peptide 20 μM, 2 mM DMPG liposomes, 20 mM HEPES, 150 mM NaCl, pH 7.0, 30 min room temperature, 200,000×g, supernatant and pellet by Tricine-SDS-PAGE
Method: (§8) Figure 3 NCR169 binds to the bacterial phospholipid. (A) Circular dichroism (CD) spectra of NCR169 peptides (NCR169-ox1 and -ox2). NCR169 peptides (20 μM) were dissolved in the following solvents: water (No additives), 2 mM DMPC liposomes, 2 mM DMPG liposomes or 30% 2,2,2-trifluoroethanol (TFE). (B) The results of liposome binding assays. The NCR169 peptide (20 μM) was incubated with buffer (No lipid), 2 mM DMPC liposomes, or 2 mM DMPG liposomes. After incubation at room temperature for 30 min, the mixture was ultra-centrifuged at 200,000×g. The supernatant and pellet fractions were analyzed by Tricine-SDS-PAGE. The no lipid sample before ultra-centrifugation was used as the input.
(§9) The phospholipids DMPC and DMPG were purchased from Avanti Polar Lipids (Alabaster, AL, USA). An appropriate amount of phospholipid was dissolved in chloroform and dried under vacuum for 1 h. The lipid film was suspended in water, vortexed, and sonicated for 30 min to form the liposomes.
(§10) The assay was carried out as described previously. Briefly, equal volumes of NCR169 peptide (20 μM) and liposomes (2 mM) were mixed in assay buffer (20 mM HEPES, 150 mM NaCl, pH 7.0) and incubated for 30 min at room temperature, followed by ultracentrifugation at 200,000×g for 15 min at 20 °C. After centrifugation, the supernatant was collected, and the pellet was dissolved in the same volume of assay buffer containing 0.2% Triton X-100. The supernatant and pellet fractions were subjected to Tricine-SDS-PAGE, and peptides were detected by Coomassie Brilliant Blue staining.
Supplementary Figure S11. NCR 169 M binds to the bacterial phospholipid. (A) Circular dichroism (CD) spectra of NCR169M (20 μM) in water (No additive), 2 mM dimyristoylphosphatidylcholine (DMPC) liposomes, 2 mM dimyristoylphosphatidylglycerol (DMPG) liposomes or 30% 2,2,2-trifluoroethanol (TFE). (B) The result of liposome binding assay. NCR169M (20 μM) was incubated with buffer (No lipid),2 mM DMPC liposomes, or 2 mM DMPG liposomes . After incubation at room temperature for 30 min, the mixture was ultra-centrifuged at 200,000 × g. The supernatant and pellet fractions were analyzed by Tricine-SDS-PAGE. The no lipidsample before ultra-centrifugation was used as the input.
(also on this page, place not known: [θ] (103 deg cm2 dmol-1) markerkDa input No lipid sup ppt sup ppt sup ppt NCR169M lipid), DMPC 2 DMPG liposomes. lipid sample)
(1 picture or pasted object on this page, not shown here)
Supplementary Figure S12. The results of liposome binding assays. (A) NCR169-derived peptide (10 μM) was incubated with buffer (No lipid), 1 mM DMPC liposomes, 1 mM DMPG liposomes. After incubation at room temperature for 30 min, the mixture was ultra-centrifuged at 200,000 × g. The supernatant and pellet fractions were analyzed by Tricine-SDS-PAGE. The no lipid sample before ultra-centrifugation was used as the input. Arrows indicate weak bands. (B) […]

[4] = Liposome sedimentation (binding) assay; settings: peptide 20 μM, 2 mM DMPC liposomes, 20 mM HEPES, 150 mM NaCl, pH 7.0, 30 min room temperature, 200,000×g, supernatant and pellet by Tricine-SDS-PAGE
Method: as §8, §9
as §10, with “After centrifugation, the supernatant was collected, and the pellet was dissolved in the same volume of assay buffer containing 0.2% Triton X-100.” left out

[5] = HPLC retention time as measure of surface hydrophobicity; type: physicochemical; settings: C18 column, linear gradient 30 to 45% acetonitrile, 220 nm; compared with NCR169 oxidized forms
Method: Figure 1 Sample preparation of NCR169 peptides. (A) High-performance liquid chromatography (HPLC) analyses of NCR169 peptides. Purified NCR169-ox1, NCR-ox2, NCR169-red, and reoxidized NCR169-red (NCR-red + GSSG) were analyzed by HPLC with a linear gradient of 30 to 45% acetonitrile and monitored at 220 nm. (B) MALDI-TOF–MS spectra of HPLC-purified NCR169-ox1 (upper), NCR169-ox2 (middle), and NCR169-red (lower). (C) Amino acid sequences of NCR169 peptides used in this study. The cysteine numbers (C1 to C4) are indicated in red on the sequence. The experimentally determined disulfide linkage patterns are indicated by connecting lines on the sequences. The first N-terminal residue, G (underlined), is the extra residue remaining after tag cleavage.
as §7
To prepare the reduced peptide (NCR169-red), NCR169-ox was reduced with 10 mM tris(2-carboxyethyl)phosphine (TCEP) at pH 10.5, followed by acidification using trifluoroacetate (TFA) and HPLC purification with a C18 column and 30–45% ACN gradient. The fractions were collected and dried under vacuum conditions. The purified peptides were confirmed using MALDI-TOF–MS.

Structure (SMILES) | IC100 (Escherichia coli K-12; E. coli K-12, drop plate method, 2 h treatment at room temperature, 5 mM HEPES-KOH pH 7.0) [µM] | IC50 (Escherichia coli K-12; K-12, 2 h, pH 7) [µM] | IC50 (Sinorhizobium meliloti; 2 h, pH 7) [µM] | IC100 (Sinorhizobium meliloti; S. meliloti, drop plate method, 2 h treatment at room temperature, 5 mM HEPES-KOH pH 7.0) [µM] | Structural stability against pH (CD spectra) [1] | Solubility in various solvents [2] | Binding to DMPG liposomes [3] | Binding to DMPC liposomes [4] | HPLC retention time (hydrophobicity of molecular surface) [5] | Solubility in various solvents ([2]; 20 mM HEPES pH 7.0 salt-free, or with 50 to 200 mM NaCl or KCl, and PBS pH 7.4, 1 h room temperature, centrifuged 20,000 × g, supernatant by Tricine-SDS-PAGE)
CC[C@H](C)[C@@H]1NC(=O)CNC(=O)[C@@H](NC(=O)[C@H](Cc2ccc(O)cc2)NC(=O)[C@H](CCCCN)NC(=O)[C@@H](NC(=O)[C@H](Cc2c[nH]cn2)NC(=O)CNC(=O)[C@@H](NC(=O)[C@H](CC(=O)O)NC(=O)[C@H](CCC(=O)O)NC(=O)CN)[C@@H](C)CC)[C@@H](C)CC)CSSC[C@@H]2NC(=O)[C@H](CCCCN)NC(=O)[C@H](Cc3c[nH]c4ccccc34)NC(=O)[C@H]([C@@H](C)CC)NC(=O)[C@H](CCCCN)NC(=O)[C@H](Cc3ccccc3)NC(=O)[C@H](CC(C)C)NC(=O)[C@@H]3CCCN3C(=O)[C@H](CCCCN)NC(=O)[C@H](CCCCN)NC(=O)[C@H](CO)NC(=O)[C@H](CCCCN)NC(=O)[C@H](Cc3ccc(O)cc3)NC(=O)[C@H](CSSC[C@@H](C(=O)N[C@H](C(=O)N[C@@H](CC(C)C)C(=O)N[C@@H](Cc3c[nH]c4ccccc34)C(=O)N[C@@H](Cc3ccc(O)cc3)C(=O)N[C@@H](CCCCN)C(=O)O)C(C)C)NC(=O)[C@H](C(C)C)NC(=O)[C@H](CC(N)=O)NC(=O)[C@H](CCC(=O)O)NC(=O)[C@H](C(C)C)NC2=O)NC(=O)[C@H](CC(=O)O)NC(=O)[C@H](CC(=O)O)NC(=O)[C@H](C(C)C)NC1=O [NCR169-ox2] (H-GEDIGHIKYCGIVDDCYKSKKPLFKIWKCVENVCVLWYK-OH; disulfide 10-29, 16-34) | 16 | 3.4 | 9.8 | 128 | retained their conformations under acidic and neutral conditions | soluble in all conditions | hardly binds | Neither NCR169-ox1 nor -ox2 bound |  | 
CC[C@H](C)[C@H](NC(=O)CNC(=O)[C@H](CS)NC(=O)[C@H](Cc1ccc(O)cc1)NC(=O)[C@H](CCCCN)NC(=O)[C@@H](NC(=O)[C@H](Cc1c[nH]cn1)NC(=O)CNC(=O)[C@@H](NC(=O)[C@H](CC(=O)O)NC(=O)[C@H](CCC(=O)O)NC(=O)CN)[C@@H](C)CC)[C@@H](C)CC)C(=O)N[C@H](C(=O)N[C@@H](CC(=O)O)C(=O)N[C@@H](CC(=O)O)C(=O)N[C@@H](CS)C(=O)N[C@@H](Cc1ccc(O)cc1)C(=O)N[C@@H](CCCCN)C(=O)N[C@@H](CO)C(=O)N[C@@H](CCCCN)C(=O)N[C@@H](CCCCN)C(=O)N1CCC[C@H]1C(=O)N[C@@H](CC(C)C)C(=O)N[C@@H](Cc1ccccc1)C(=O)N[C@@H](CCCCN)C(=O)N[C@H](C(=O)N[C@@H](Cc1c[nH]c2ccccc12)C(=O)N[C@@H](CCCCN)C(=O)N[C@@H](CS)C(=O)N[C@H](C(=O)N[C@@H](CCC(=O)O)C(=O)N[C@@H](CC(N)=O)C(=O)N[C@H](C(=O)N[C@@H](CS)C(=O)N[C@H](C(=O)N[C@@H](CC(C)C)C(=O)N[C@@H](Cc1c[nH]c2ccccc12)C(=O)N[C@@H](Cc1ccc(O)cc1)C(=O)N[C@@H](CCCCN)C(=O)O)C(C)C)C(C)C)C(C)C)[C@@H](C)CC)C(C)C [NCR169-red] (H-GEDIGHIKYCGIVDDCYKSKKPLFKIWKCVENVCVLWYK-OH) |  |  |  |  |  |  |  |  | longer than that of the NCR169 oxidized forms | insoluble in all conditions except the salt-free buffer
